Literature values in patent publication US20030143271A1, “Drug mixture with enhanced dissolution rate” (priority 2002, published 2003).

Assays:
[1] = system: antiplatelet effects of the aspirin; details: in combination with low-dose aspirin, healthy subjects
[2] = biological target: platelet cyclooxygenase-1 (Homo sapiens, UniProt P23219); details: clinical relevance not clear
platelet cyclooxygenase-1, sequence (P23219 24-599): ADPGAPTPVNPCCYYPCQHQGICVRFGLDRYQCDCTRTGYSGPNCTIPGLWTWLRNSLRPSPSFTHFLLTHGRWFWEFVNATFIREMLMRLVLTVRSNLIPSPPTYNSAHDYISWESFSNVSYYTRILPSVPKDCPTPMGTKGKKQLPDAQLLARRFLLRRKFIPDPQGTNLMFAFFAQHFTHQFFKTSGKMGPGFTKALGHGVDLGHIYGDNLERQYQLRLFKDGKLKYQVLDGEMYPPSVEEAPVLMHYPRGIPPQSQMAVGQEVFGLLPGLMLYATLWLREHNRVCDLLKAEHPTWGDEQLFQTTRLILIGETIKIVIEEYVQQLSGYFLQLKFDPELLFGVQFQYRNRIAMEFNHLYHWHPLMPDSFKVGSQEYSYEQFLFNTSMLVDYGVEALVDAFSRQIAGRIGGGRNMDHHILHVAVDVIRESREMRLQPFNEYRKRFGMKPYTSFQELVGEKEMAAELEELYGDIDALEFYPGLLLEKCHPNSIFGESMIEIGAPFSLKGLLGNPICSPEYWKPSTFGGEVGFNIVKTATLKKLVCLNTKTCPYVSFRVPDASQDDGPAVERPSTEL

effect on the antiplatelet activity of aspirin [2]	SMILES	effect on antiplatelet effects of aspirin [1]
some antagonistic effect	CS(=O)(=O)c1ccc(C2=C(c3ccccc3)C(=O)OC2)cc1 [rofecoxib]	did not alter antiplatelet effects of the aspirin
some antagonistic effect	Cc1onc(-c2ccccc2)c1-c1ccc(S(N)(=O)=O)cc1 [valdecoxib]	
